Source: paper PMC9032233, “2-{5-[(Z,2Z)-2-Chloro-3-(4-nitrophenyl)-2-propenylidene]-4-oxo-2-thioxothiazolidin-3-yl}-3-methylbutanoic Acid as a Potential Anti-Breast Cancer Molecule” (International Journal of Molecular Sciences, 2022)

Legend:
LC3B [1] = test: LC3B concentration in MDA-MB-231 cell lysates (ELISA); format: cell-based, human; settings: MDA-MB-231, 5 mM, 24 h; control 1.504 ng/mL
Procedure: (§1) High sensitivity assay kits (EIAab Science Co., Ltd., Wuhan, China; Abcam plc., Cambridge, United Kingdom; Cloud-Clone Corp., Katy, TX, USA) were used to determine the concentrations of selected proteins in cell lysates […] In brief, after trypsinization, cells were washed thrice with cold PBS and centrifuged at 1000× g for 5 min at 4 °C. Then, cells (1.5 × 10^6) were suspended in lysis buffer for whole-cell lysates. After the second centrifugation, cellular supernatants were frozen immediately at −70 °C. Untreated cancer cells were taken as a control.
(§2) The microtiter plates provided in the kits were pre-coated with an antibody specific to the analyzed antigen. The tests were carried out according to the manufacturer’s protocols.

Beclin-1 [2] = test: Beclin-1 concentration in MDA-MB-231 cell lysates (ELISA); format: cell-based, human; set-up: unit of the concentration uncertain; settings: MDA-MB-231, 5 (unit uncertain), 24 h; control 3.605 ng/mL
Procedure: as §1, §2

Beclin-1 [3] = test: Beclin-1 concentration in MCF-7 cell lysates (ELISA); format: cell-based, human; settings: 5 mM, 24 h, control 7.965 ng/mL
Procedure: as §1, §2

LC3A [4] = test: LC3A concentration in MDA-MB-231 cell lysates (ELISA); format: cell-based, human; settings: MDA-MB-231, 5 mM, 24 h; control 2.965 ng/mL
Procedure: as §1, §2

LC3A [5] = test: LC3A concentration in MCF-7 cell lysates (ELISA); format: cell-based, human; settings: MCF-7, 5 mM, 24 h; control 6.726 ng/mL
Procedure: as §1, §2

LC3B [6] = test: LC3B concentration in MCF-7 cell lysates (ELISA); format: cell-based, human; settings: MCF-7, 5 mM, 24 h; control 1.194 ng/mL
Procedure: as §1, §2

[7] = Parallel artificial membrane permeability assay (PAMPA); format: in vitro ADME; settings: 200 µM in PBS pH 7.4, 5 h at RT, read-out: permeability coefficient Pe
Procedure: All in vitro assays used for the evaluation of Les-3331 ADME-Tox parameters were described previously. In brief, for the determination of permeability, Pre-coated PAMPA Plate System Gentest^TM was purchased from Corning (Tewksbury, MA, USA). […] PAMPA plates with compounds added to the donor wells were incubated for 5 h at RT. UPLC-MS Waters ACQUITY—TQD system with the TQ Detector (Waters, Milford, MI, USA) was used next for determination of compounds concentrations in donor and acceptor wells, which were required for calculation of permeability coefficient Pe according to formulas provided by the manufacturer.

`Cn1cnc(N)c2ncnc1-2` [3-MA, 3-Methyladenine] showed an LC3B concentration (LC3B [1]) of 0.628 ng/mL, a Beclin-1 concentration (Beclin-1 [2]) of 2.399 ng/mL and a Beclin-1 concentration (Beclin-1 [3]) of 6.344 ng/mL. The LC3A concentration (LC3A [4]) was 0.994 ng/mL, the LC3A concentration (LC3A [5]) was 4.423 ng/mL and the LC3B concentration (LC3B [6]) was 0.664 ng/mL.
In the case of `Cn1c(=O)c2c(ncn2C)n(C)c1=O` [caffeine, reference compound], the Papp at 5 h, 200 µM [7] is reported as 6.58 ×10⁻⁶ cm/s.
